The values below come from patent EP1209147A1, “CARBOXYLIC ACID DERIVATIVES AND ADHESION MOLECULE INHIBITORS CONTAINING THE SAME AS THE ACTIVE INGREDIENT” (TORAY INDUSTRIES, INC., priority 1999, dated 2001).

Like-named read-outs stand apart in the source and are kept apart here.

The target in experiment [1] is VLA-4-IgG chimeric protein (Homo sapiens, UniProt P05556+P13612). Put plainly: Inhibition of binding between CS-1 peptide and VLA-4-IgG chimeric protein. As for the experimental part:
The adhesion-inhibition activity of the compound of the present invention against VLA-4 may be examined by using an adhesion assay system in which the adhesion between VLA-4-expressing cells such as Ramos cells and Jurkat cells, and fibronectin or a fragment thereof, e.g., a peptide containing CS-1 sequence (Gly Pro Glu Ile Leu Asp Val Pro Ser Thr) (hereinafter referred to as "CS-1 peptide") immobilized on an immunoplate is measured. Alternatively, a binding assay system in which the binding of the VLA-4 protein to the fibronectin or a fragment thereof such as CS-1 peptide immobilized on an immunoplate is measured may be employed. In the present invention, the inhibition assay of the compound is preferably measured by a binding assay system which measures the binding between a chimeric protein of VLA-4 and immunoglobulin (VLA-4-IgG chimeric protein) and CS-1 peptide (Japanese patent application No. H9-234544), although the method of measuring the inhibition activity is not restricted to this method. The term "VLA-4-IgG chimeric protein" herein means the heterodimer composite molecule in which a chimeric protein between α4 of VLA-4 and immunoglobulin (hereinafter referred to as "VLAα4·IgG chimeric protein), and a chimeric protein between β1 of VLA-4 and immunoglobulin (hereinafter referred to as "VLAβ1·IgG chimeric protein) are associated. As the immunoglobulin, although heavy chain or light chain of IgG, IgM or the like may be employed, in the present invention, IgG1 heavy chain is used. When testing the inhibition activity of the compound, it is preferred to preliminarily mix the VLA-4-IgG chimeric protein and the test compound.
Effects of Compounds for Inhibition of Binding Between CS-1 Peptide and VLA-4-IgG
A conjugate between a peptide (Gys Leu His Gly Pro Glu Ile Leu Asp Val Pro Ser Thr) containing CS-1 sequence and rabbit IgG (Sigma) was prepared by the reported method (Humphries, M.J. et al. J. Biol.Chem., 262, 6886-6892 (1987)). The obtained conjugate was diluted with phosphate buffer (hereinafter referred to as "PBS(-)", NISSUI) and the resulting solution was placed in wells of a 96-well immunoplate (NUNC) in an amount of 100 µl/well, followed by leaving the solution to stand at 4°C for 16 hours to immobilize the conjugate.
Then each well was washed twice with PBS(-), and a PBS solution containing 1% BSA heat-treated at 80°C for 10 minutes was placed in each well in an amount of 300 µl/well. The immunoplate was left to stand at 4°C for 3 hours, and then the solution in each well was removed by aspiration.
After preliminarily allowing each compound to react with VLA-4-IgG chimeric protein (100 µl) at room temperature for 20 minutes, the resulting solution was allowed to react with CS-1 peptide in each well at 30°C for 3 hours. Thereafter, non-bound VLA-4-IgG chimeric protein was removed by aspiration and each well was washed twice with 0.1% BSA-containing TBS buffer (150 mM NaCl,25 mM Tris-HCI, 1 mM MnCl2 pH 7.4). To the bound VLA-4-IgG chimeric protein, biotin-labeled anti-human IgG antibody (Vector) as an primary antibody was added, and then avidin-labeled horse radish peroxidase (Sigma) as a secondary antibody was added, and the reaction was allowed to occur. After the reaction, o-phenylenediamine as a substrate was added to color the solution, and the absorbance at 490 nm was measured. From the absorbance, the binding-inhibition activity of each test compound was determined.

A further experiment concerns Auricular Edema Model. As to the kind of experiment: Auricular edema model (IgE anti-DNP passive sensitization, DNFB induction). In kind it is in vivo, BLAB/c mouse. The following applies: at a dose of not more than 150 mg/kg; topically or systemically, totally 3 times. As to the method:
To each BLAB/c mouse (female, 7 weeks old, JAPAN CHARLES RIVER), mouse IgE anti-DNP antibody (5 mg/kg, SEIKAGAKU CORPORATION) was intravenously administered to passively sensitize the mouse. Twenty four hours later, 20 µl of 0.38% 2,4- dinitrofluorobenzene (DNFB, Aldrich) dissolved in acetone:olive oil (4:1) was applied to the auricle of the sensitized mouse to induce inflammation. The thickness of the auricle was measured until 24 hours after the induction with Digimatic Indicator (Mitutoyo) and the ear swelling rate was calculated according to the following equation: Ear Swelling Rate (%) = (A - B)/B x 100 [formula] • A: Thickness of right auricle at 24 hours after induction • B: Thickness of right auricle before induction
Twenty four hours after the induction, the auricle was cut off and fixed with formalin. After the fixation, continuous sections of the auricle were prepared and stained by Luna staining. The number of eosinophils in each section was counted and the total of them was defined as the number of eosinophils accumulated in the auricle.
Compound No. 140 used as the test compound was dissolved in physiological saline and the solution was intravenously administered totally 3 times, i.e., at the time of sensitization, at 8 hours and 24 hours after sensitization, at a dose of 400 mg/kg per each time. Further, to examine the effect of the compound when applied to the auricle, the compound was dissolved in ethanol, and the solution was applied to the auricle totally twice, i.e., at 8 hours after sensitization and at 1 hour before the induction, at a dose of 0.3 mg/ear. To the background group and the control group, physiological saline was intravenously administered and ethanol was applied, respectively. The experiment was carried out using 4 to 6 mice in each group. The results are shown in terms of mean ± standard error.
Twenty four hours after the induction, the auricle was cut off and fixed with formalin. After the fixation, continuous sections of the auricle were prepared and stained by Luna staining. The number of eosinophils in each section was counted. Compound No. 143 used as the test compound was dissolved in physiological saline and the solution was topically or systemically administered totally 3 times, i.e., at the time of sensitization, at 8 hours and 24 hours after sensitization. The experiment was carried out using 4 to 6 mice in each group. The results are shown in terms of mean ± standard error.

The next experiment concerns Mouse Asthma Model. Put plainly: Mouse asthma model (OVA/Alum sensitization, OVA inhalation, airway anaphylaxis and BALF eosinophils). As to conditions: at a dose of not more than 150 mg/kg, topically or systemically. In kind it is in vivo, BLAB/c mouse. As to the method:
A mixed solution containing aluminum hydroxide gel (Alum) on which ovalbumin (hereinafter "OVA") was adsorbed (20 ∝g OVA/2mg Alum/200 ∝l physiological saline) was intraperitoneally administered to each BLAB/c mouse (female, 7 weeks old, JAPAN CHARLES RIVER) at a dose of 200 ∝l ([…]) per time on DAY-1 and DAY-14 to sensitize the mouse. Then each mice was made to aspire 2% OVA dissolved in physiological saline on DAY-28, 29 and 30 to induce inflammation. Compound Nos. 143 and 236 used as the test compounds were dissolved in physiological saline and each solution was topically or systemically administered at 30 minutes before induction by OVA, and twice a day after induction.
On DAY-31, development of airway anaphylaxis was measured using a non-restrictive chamber (BUXCO). Then the bronchus of each mouse was incised and the bronchus and alveoli were washed (BAL) with 0.7 ml of physiological saline. After the washing, the washing fluid (BALF) of the bronchus and alveoli was recovered and centrifuged. The leukocytes contained in the BALF were subjected to site spin to prepare a smear specimen. After staining the specimen by May-Giemsa staining method, the leukocytes were grouped and counted under microscope to determine the number of eosinophils. The experiment was carried out using 6 to 8 mice in each group. The results are shown in terms of mean ± standard error.

Setting [2] is: binding of VLA-4-IgG chimeric protein to immobilized CS-1 peptide, compound preincubated 20 minutes, read-out: Inhibition Activity(IC50 : nM).

Chain of VLA-4-IgG chimeric protein (P13612 with tags, fused parts or gaps limits assumed): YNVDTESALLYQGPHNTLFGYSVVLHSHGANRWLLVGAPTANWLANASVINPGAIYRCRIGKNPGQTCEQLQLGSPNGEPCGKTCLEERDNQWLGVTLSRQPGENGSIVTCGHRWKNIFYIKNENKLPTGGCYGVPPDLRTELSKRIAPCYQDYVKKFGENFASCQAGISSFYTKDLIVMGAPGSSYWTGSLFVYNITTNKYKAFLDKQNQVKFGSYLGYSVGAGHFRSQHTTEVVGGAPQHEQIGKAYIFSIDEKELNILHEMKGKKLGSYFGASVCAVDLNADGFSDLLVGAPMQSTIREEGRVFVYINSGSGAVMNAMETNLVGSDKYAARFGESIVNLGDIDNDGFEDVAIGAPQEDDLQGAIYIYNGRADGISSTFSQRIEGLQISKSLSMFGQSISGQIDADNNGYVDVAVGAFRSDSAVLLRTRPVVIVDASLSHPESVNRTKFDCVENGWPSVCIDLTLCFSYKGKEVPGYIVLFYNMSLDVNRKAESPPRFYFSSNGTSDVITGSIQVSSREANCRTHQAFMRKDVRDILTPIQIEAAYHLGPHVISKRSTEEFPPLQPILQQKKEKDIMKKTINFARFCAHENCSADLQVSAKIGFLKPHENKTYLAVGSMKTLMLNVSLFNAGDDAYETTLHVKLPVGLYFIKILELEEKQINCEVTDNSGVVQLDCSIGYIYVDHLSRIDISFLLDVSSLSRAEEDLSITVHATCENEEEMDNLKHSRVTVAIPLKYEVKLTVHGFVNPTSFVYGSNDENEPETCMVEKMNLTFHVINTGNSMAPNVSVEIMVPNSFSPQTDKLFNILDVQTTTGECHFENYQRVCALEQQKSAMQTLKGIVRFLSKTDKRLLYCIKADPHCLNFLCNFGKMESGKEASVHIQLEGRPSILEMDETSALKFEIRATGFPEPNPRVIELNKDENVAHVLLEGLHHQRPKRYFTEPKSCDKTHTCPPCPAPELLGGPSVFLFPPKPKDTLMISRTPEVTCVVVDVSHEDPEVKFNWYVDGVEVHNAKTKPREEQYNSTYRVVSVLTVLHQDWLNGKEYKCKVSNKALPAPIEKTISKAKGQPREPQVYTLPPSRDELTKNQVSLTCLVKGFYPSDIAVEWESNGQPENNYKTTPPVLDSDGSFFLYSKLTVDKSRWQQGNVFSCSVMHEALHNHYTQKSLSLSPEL
Chain of VLA-4-IgG chimeric protein (P05556 with tags, fused parts or gaps limits assumed): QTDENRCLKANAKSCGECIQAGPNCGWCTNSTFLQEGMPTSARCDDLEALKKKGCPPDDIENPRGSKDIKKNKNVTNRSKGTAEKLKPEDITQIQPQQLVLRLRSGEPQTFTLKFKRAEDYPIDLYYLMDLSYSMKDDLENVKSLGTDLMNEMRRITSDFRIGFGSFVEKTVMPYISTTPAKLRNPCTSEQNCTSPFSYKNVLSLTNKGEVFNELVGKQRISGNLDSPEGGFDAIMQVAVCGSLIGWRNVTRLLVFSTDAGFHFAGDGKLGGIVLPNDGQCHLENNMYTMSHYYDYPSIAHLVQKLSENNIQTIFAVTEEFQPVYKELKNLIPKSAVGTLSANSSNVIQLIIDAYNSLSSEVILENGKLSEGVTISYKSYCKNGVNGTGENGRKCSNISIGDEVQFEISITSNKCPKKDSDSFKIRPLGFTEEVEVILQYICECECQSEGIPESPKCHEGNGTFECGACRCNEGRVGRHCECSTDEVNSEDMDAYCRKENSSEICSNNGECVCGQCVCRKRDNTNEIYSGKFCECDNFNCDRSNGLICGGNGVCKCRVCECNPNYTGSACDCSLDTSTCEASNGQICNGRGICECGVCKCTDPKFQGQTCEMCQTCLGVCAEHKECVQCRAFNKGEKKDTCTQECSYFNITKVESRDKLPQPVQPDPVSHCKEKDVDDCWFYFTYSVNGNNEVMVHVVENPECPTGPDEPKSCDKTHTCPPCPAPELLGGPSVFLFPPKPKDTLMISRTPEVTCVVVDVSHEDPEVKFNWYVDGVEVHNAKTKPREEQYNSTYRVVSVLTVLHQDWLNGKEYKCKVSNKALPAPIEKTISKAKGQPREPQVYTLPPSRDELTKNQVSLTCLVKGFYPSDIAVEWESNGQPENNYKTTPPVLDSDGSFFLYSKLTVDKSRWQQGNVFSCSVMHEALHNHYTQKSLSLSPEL

In the case of “3-((2(R)-((1-acetyl-3(R,S)-(4-hydroxyphenyl)pyrrolidin-2(R,S)-yl)carbonylamino)-2(R)-carbonylethyl)disulfanyl)-2(R)-(3,3-dimethylbutanoylamino)propionic acid [Example 74]”, in experiment [1] (setting [2]), the IC50 (commonly the concentration at which inhibition is half-maximal) came to 120 nM.

For `CC(C)CC(C(=O)NC(Cc1ccc(CCC(=O)O)cc1)C(=O)O)c1ccc(O)cc1` (single isomer, unassigned) [Example 120, 3-(4-(2-carboxyethyl)phenyl)-2-(2-(4-hydroxyphenyl)-4-methylpentanoylamino)propionic acid], in experiment [1] (setting [2]), the IC50 was 160 nM.

`CC(C)CC(C(=O)N[C@@H](CCSC[C@H](NC(=O)C(CC(C)C)c1ccc(O)cc1)C(=O)O)C(=O)O)c1ccc(O)cc1` (stereo partly drawn) [Example 8, 4-(2(R)-carboxy-2(R)-(2(R,S)-(4-hydroxyphenyl)-4-methylpentanoylamino)ethylthio)-2(S)-(2(R,S)-(4-hydroxyphenyl)-4-methylpentanoylamino) butyric acid] registered an IC50 in experiment [1] of 200 nM.

Molecule `CC(C)CC(C(=O)N[C@@H](CCSC[C@H](NC(=O)CC(C)(C)C)C(=O)O)C(=O)O)c1ccc(O)cc1` (stereo partly drawn) [Example 14, 4-(2(R)-carboxy-2(R)-(3,3-dimethylbutanoylamino)ethylthio)-2(S)-(2(R,S)-(4-hydroxyphenyl)-4-methylpentanoylamino) butyric acid] displayed a half-inhibitory concentration (IC50) in experiment [1] of 500 nM.

Turning to `CC(C)CC(C(=O)NCCCSC[C@H](NC(=O)CC(C)(C)C)C(=O)O)c1ccc(O)cc1` (stereo partly shown) [Example 19], the IC50 in experiment [1] was found to be 500 nM.

In experiment [1], `CC(C)CC(C(=O)N[C@@H](CSSC[C@H](NC(=O)CC(C)(C)C)C(=O)O)C(=O)O)c1ccc(O)cc1` (stereo partly drawn) [Example 62, 3-((2(R)-carboxy-2(R)-(2(R,S)-(4-hydroxyphenyl)-4-methylpentanoylamino)ethyl)disulfanyl)-2(R)-(3,3-dimethylbutanoylamino)propionic acid] showed an IC50 of 90 nM.

Take `CC(C)C[C@H](OCc1ccccc1)C(=O)N[C@@H](Cc1ccc(OCC(C)(C)C)cc1)C(=O)O` [Example 102, 2(S)-(4-methyl-2(S)-(phenylmethoxy)pentanoylamino)-3-(4-(2,2-dimethylpropoxy)phenyl)propionic acid]: the half-inhibitory concentration (IC50) in experiment [1] (setting [2]) was determined as 500 nM.

As to `CC(C)CC(NC(=O)CCc1ccc(CC(NC(=O)CC(C)(C)C)C(=O)O)cc1)c1ccc(O)cc1` (stereo not shown) [Example 131, 3-(4-(2-(N-(1-(4-hydroxyphenyl)-3-methylbutyl)carbamoyl)ethyl)phenyl)-2-(3,3-dimethylbutanoylamino)propionic acid], in experiment [1] (setting [2]), the IC50 turned out to be 1800 nM.

As to `COc1cccc(OC)c1C(=O)NCCCC(NC(=O)c1c(Cl)cccc1Cl)C(=O)O` (stereo not shown) [Example 143, 2-((2,6-dichlorophenyl)carbonylamino)-5-((2,6-dimethoxyphenyl)carbonylamino)pentanoic acid], the IC50 in experiment [1] (setting [2]) turned out to be 13 nM. For the same molecule, in the experiment on Auricular Edema Model, the “accumulation of eosinophils to auricle induced by application of the antigen” value was “inhibited” and the “swelling of ear induced by application of the antigen” value is “inhibited”. Moreover, the “accumulation of eosinophils to the lung” value with Mouse Asthma Model (BALF on DAY-31) is “inhibited”. In addition, the “progress of airway anaphylaxis” value with Mouse Asthma Model (DAY-31) was “inhibited”.

Take `O=C(NC(CCCCC(NC(=O)c1c(Cl)cccc1Cl)C(=O)O)C(=O)O)c1c(Cl)cccc1Cl` (stereo not shown) [Example 154, 2,7-bis((2,6-dichlorophenyl)carbonylamino)octanedioic acid]: the IC50 in experiment [1] (setting [2]) worked out at 430 nM.

In experiment [1], `O=C(O)CCc1ccc(C[C@H](NC(=O)c2c(Cl)cccc2Cl)C(=O)O)cc1` [Example 161, 2(S)-2-((2,6-dichlorophenyl)carbonylamino)-3-(4-(2-carbaxyethyl)phenyl)propionic acid] yielded an IC50 of 64 nM.

Regarding `CC(C)C[C@H](NC(=O)Cc1ccc(NC(=O)Nc2ccccc2)cc1)C(=O)N[C@@H](Cc1ccc(CCC(=O)O)cc1)C(=O)O` [Example 171, (2S)-2-((2S)-4-methyl-2-(2-(4-((phenylamino)carbonylamino)phenyl)acetylamino)pentanoylamino)-3-(4-(2-carboxyethyl)phenyl)propionic acid], the IC50 in experiment [1] (setting [2]) was determined as 780 nM.

Take `CC(C)C[C@H](NC(=O)Cc1ccc(NC(=O)Nc2ccccc2)cc1)C(=O)N[C@@H](CCSC[C@H](NC(=O)CC(C)(C)C)C(=O)O)C(=O)O` [Example 176, 4-((2R)-2-(3,3-dimethylbutanoylamino)-2-carboxyethylthio)-(2S)-2-((2S)-4-methyl-2-(2-(4-((phenylamino)carbonylamino)phenyl)acetylamino)pentanoylamino)butyric acid]: in experiment [1] (setting [2]), the IC50 was determined as 13 nM.

For the molecule `O=C(N[C@@H](CCSC[C@H](NC(=O)c1c(Cl)cccc1Cl)C(=O)O)C(=O)O)c1c(Cl)cccc1Cl` [Example 180, 4-((2R)-2-((2,6-dichlorophenyl)carbonylamino)-2-carboxyethylthio) (2S)-2-((2,6-dichlorophenyl)carbonylamino)butyric acid], in experiment [1] (read-out: Inhibition Activity(IC50 : nM), binding of VLA-4-IgG chimeric protein to immobilized CS-1 peptide, compound preincubated 20 minutes), the IC50 was found to be 38 nM.

In the case of “(2R)-3-(((2S)-1-(2-cyclohexylacetyl)pyrrolidin-2-yl)methylthio)-2-(3,3-dimethylbutanoylamino)propionic acid [Example 193]”, the half-maximal inhibitory concentration (IC50) in experiment [1] (setting [2]) worked out at 2200 nM.
